Consider one compound from patent US20240058344A1, “METHODS OF TREATING NEURODEGENERATIVE DISORDERS AND STAT3-LINKED CANCERS USING SUPPRESSORS OF ELECTRON LEAK” (Cornell University, priority 2020, published 2024).

The subject of one assay is STAT3. As to the kind of experiment: Phospho-STAT3 and total STAT3 in primary astrocytes (Western blotting). In kind it is cell-based, mice. As to conditions: for Phosphorylated STAT3 levels / Total STAT3 levels: S3QEL2 60 μM. Here is the method:
(FIGS. 11A-11B) Astrocytes isolated from P2-P3 mice were treated with oligomeric Aβ (3 μM) and S3QEL2 (S3, 20 μM) or vehicle (V) for 24 h and analyzed by qRT-PCR (FIG. 11A) or Western blotting (B) and normalized to vehicle controls. (FIG. 11B) Phospho-STAT3 levels were normalized to total STAT3 per sample. n=3 wells per condition; *p<0.05, **p<0.01, ***p<0.001, ANOVA with Dunnett's test.
(FIGS. 12A-12B) Astrocytes isolated from P2-P3 mice were treated with oligomeric Aβ (3 μM) (A) or A1 cocktail consisting of 30 ng/mL TNF-α, 3 ng/mL IL-1α, and 400 ng/mL Clq (B), and S3QEL2 (S3, 60 μM) or vehicle (Con) for indicated durations and analyzed by Western blotting. Phospho-STAT3 levels were normalized to total STAT3 per sample, and total STAT3 levels were normalized to γ-tubulin levels per sample. n≥3 wells per condition; *p<0.05, **p<0.01, ***p<0.001, one-way ANOVA with Tukey's multiple comparisons test.
(FIG. 17A) Astrocytes isolated from P2-P3 mice were treated with A1 cocktail consisting of 30 ng/ml TNF-α, 3 ng/ml IL-1α, and 400 ng/ml Clq, and S3QEL1.2 (3 μM) or vehicle for approximately 6 h and analyzed by Western blotting. Phospho-STAT3 levels were normalized to total STAT3 per sample. n=6 wells per condition. **p<0.01, ***p<0.001, one-way ANOVA with Dunnett's multiple comparisons test. (FIG. 17B) Astrocytes isolated from P2-P3 mice were treated with A1 cocktail consisting of 30 ng/ml TNF-α, 3 ng/ml IL-1α, and 400 ng/ml Clq for 24 h, and analyzed for levels of released H2O2 using Amplex UltraRed, a fluorogenic substrate that is a highly sensitive indicator of H2O2, in the presence of horseradish peroxidase and superoxide dismutase. n=6 wells per condition. *p=0.01, Student's t test. (FIG. 17C) Astrocytes isolated from P2-P3 mice were treated with vehicle or 3 ng/ml IL-1α and either S3QEL2 (20 μM), S3QEL1.2 (1 μM), or vehicle for approximately 24 h, and analyzed for levels of released H2O2 using Amplex UltraRed. n=6 wells per condition. *p<0.05, **p<0.01, ***p<0.001, two-way ANOVA with Bonferroni's multiple comparisons test.
Similar to oligomeric Aβ, A1 cocktail (which is a mixture of TNF-α, IL-1α, and Clq) induced astrocytic reactivity that is associated with synaptic damage and neurodegeneration.
Given that this compound has a different chemical structure, these findings indicate that S3QELs suppress astrocytic reactivity and neuroinflammatory responses through modulation of complex III ROS rather than modulation of other off-target or nonspecific mechanisms.

Another assay deals with A-172 glioblastoma cells. In words: Glioblastoma cell proliferation, CellTiter-Glo luciferase assay, A-172. In kind it is cell-based, human. The conditions noted are these: 0-50 μM, 72 and 96 h. The procedure:
(§1) Relative cell density was measured using the CellTiter-Glo luciferase assay. n=3 wells per condition. *p<0.05, **p<0.01, ***p<0.001 vs. 0 μM, one-way ANOVA with Dunnett's multiple comparisons test.
(§2) The effect of S3QELs on proliferation of glial tumor cells that have different oncogenic mutations was assessed. In particular, proliferation rates were assessed in three different human immortalized glioblastoma cells lines (A-172, T98G, and U-87 MG). A-172 and U-87 lines have mutations in PTEN, a phosphatase that indirectly regulates PI3K activities, whereas T98G cell line has a mutation in p53, a well-known tumor suppressor gene. STAT3 can affect PI3K signaling and p53 transcription and could thereby promote glioblastoma cell proliferation. Whether S3QELs reduce glioblastoma cell proliferation and aberrant intracellular signaling was tested.
(§3) Briefly, two complementary methods were used to assess cell proliferation, including the CellTiter-Glo assay and DAPI staining of cell nuclei. The effects of S3QEL2 treatment on A-172, T98G, and U-87 MG cells were measured at different drug concentrations (0, 6, 20, 30, 40, or 50 μM) and time-points after treatment (72 or 96 hours). S3QEL2 inhibits proliferation of A-172 and T98G glioblastoma cells in a highly dose-dependent manner and these effects are similar at different time-points (FIG. 15A-B).
A general note: ATP-based viability assays read luminescence as a measure of living cells.

The next assay deals with lipocalin-2. As to the kind of experiment: Lipocalin-2 protein released by primary astrocytes (ELISA). The conditions noted are these: A1 cocktail, 60 μM, approximately 24 h. In kind it is cell-based, mice. Here is the method:
Astrocytes isolated from P2-P3 mice were treated with A1 cocktail consisting of 30 ng/mL TNF-α, 3 ng/mL IL-1α, and 400 ng/mL Clq, and S3QEL2 (S3, 60 μM) or vehicle (Con) for approximately 24 h. Levels of astrocytic lipocalin-2 protein released into the culture media were analyzed by ELISA. n=4 wells per condition. **p<0.01, ***p<0.001, one-way ANOVA with Dunnett's multiple comparisons test.
Background: In an ELISA, binding on a coated surface is turned into a signal by an enzyme label.

A further assay deals with primary neurons. In words: Tau-associated neuronal damage in primary neurons cultured alone (AAV-TauP301S, MAP2/NeuN immunostaining). In kind it is cell-based, mouse. As to conditions: 10 μM; AAV human P301S tau. The procedure:
Primary neurons were immunostained for MAP2 or NeuN following mock treatment or transduction with AAV encoding human P301S mutant tau under the synapsin-1 promoter. Neurons were cultured without (FIGS. 9A-9B) or with (FIGS. 9C-9D) primary mouse microglia. S3QEL2 (S3, 10 μM). n=4 per condition.
To begin dissecting the mechanisms by which S3QEL2 affects neural cell function and disease-linked processes, studies in primary cultures were conducted. Isolated mouse-derived neurons were transduced with adeno-associated viral vectors (AAVs) encoding wild-type or the P301S mutant form of the human tau protein (FIG. 8A). […] However, S3QEL reduced neuronal damage in the presence of astrocytes (approx. 30% astrocytes, FIG. 10A). Tau can also promote aberrant neuronal activity and hypersynchrony. S3QEL reduced aberrant neuronal firing in tau-transduced neurons co-cultured with astrocytes (FIGS. 10B-10C).

For assay [1], the system named is U-87 MG glioblastoma cells. As to the kind of experiment: Glioblastoma cell proliferation, CellTiter-Glo luciferase assay, U-87 MG. In kind it is cell-based, human. The conditions noted are these: 0-50 μM, 72 and 96 h. The procedure:
as §1, §2, §3

Another assay deals with isolated microglia. In words: Markers of reactivity and immune signaling in isolated microglia (qRT-PCR). It counts as cell-based, mice. As to conditions: S3QEL2 20 μM, 24 h. Here is the method: Microglia isolated from P2-P3 mice were treated with lipopolysaccharide (LPS, 100 ng/ml) or oligomeric Aβ (3 μM), and S3QEL2 (20 μM) or vehicle for 24 h and analyzed by qRT-PCR. n=3 wells per condition.
On the technique in general: Quantitative PCR measures a nucleic acid by following its amplification.

[2] abbreviates: A1 cocktail (TNF-α, IL-1α, Clq).

Regarding `CCCN(CCC)c1ncnc2c1cnn2-c1ccc(C)c(C)c1` [S3QEL2], the “Phosphorylated STAT3 levels” value with STAT3 (setting [2]) and in the assay on STAT3 (oligomeric Aβ 3 μM) was “reduced” in each case. The “Total STAT3 levels” value with STAT3 (setting [2]) and in the assay with STAT3 (oligomeric Aβ 3 μM) was “reduced” each time. Moreover, in the assay on STAT3 (oligomeric Aβ 3 μM, S3QEL2 20 μM, 24 h), the “Phospho-STAT3 levels normalized to total STAT3” value is “reduced”. The “Cell proliferation (relative cell density, CellTiter-Glo)” value is “dose-dependently inhibited cell proliferation” in the assay on A-172 glioblastoma cells and “minimal effect” in assay [1]. Besides, the “Release of lipocalin-2 protein into culture media” value in the assay on lipocalin-2 is “inhibited the release of lipocalin-2”. Also, the “Tau-associated neuronal damage, neurons cultured alone” value in the assay on primary neurons is “did not affect tau-associated neuronal damage”. For the same compound, the “Markers of reactivity and immune signaling in microglia” value with isolated microglia (LPS 100 ng/ml) was “did not affect markers of reactivity and immune signaling”; in the assay on isolated microglia (oligomeric Aβ 3 μM) it was “did not affect markers of reactivity and immune signaling”.
